Test results published in PubChem BioAssay (NCI).
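How tested: cells in 96-well plates exposed to compound for 48 hours at five concentrations. TGI: concentration producing complete growth inhibition.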

Assays:
Test in all cases: NCI tumour cell line growth inhibition, 48 h
[1] = test system: SN12C renal
[2] = test system: NCI-H522 lung
[3] = test system: RXF 393 renal
[4] = test system: DU-145 prostate
[5] = test system: SW-620 colon
[6] = test system: M14 melanoma
[7] = test system: SNB-19 CNS
[8] = test system: COLO 205 colon
[9] = test system: 786-0 renal
[10] = test system: A549 NSCLC
[11] = test system: HT29 colon
[12] = test system: M19-MEL melanoma
[13] = test system: SNB-78 CNS
[14] = test system: PC-3 prostate
[15] = test system: OVCAR-4 ovarian
[16] = test system: NCI-H226 lung
[17] = test system: SR leukemia
[18] = test system: A498 renal
[19] = test system: UO-31 renal
[20] = test system: HS 578T breast
[21] = test system: KM20L2 colon
[22] = test system: KM12 colon
[23] = test system: MDA-N
[24] = test system: OVCAR-3 ovarian
[25] = test system: UACC-62 melanoma
[26] = test system: U251 CNS
[27] = test system: HOP-92 NSCLC
[28] = test system: UACC-257 melanoma
[29] = test system: EKVX NSCLC
[30] = test system: DMS 273 small cell lung
[31] = test system: OVCAR-8 ovarian
[32] = test system: SK-MEL-2 melanoma
[33] = test system: T-47D breast
[34] = test system: P388 leukemia
[35] = test system: P388/ADR leukemia
[36] = test system: HOP-62 NSCLC
[37] = test system: HCT-15 colon
[38] = test system: NCI-H460 lung
[39] = test system: SF-539 CNS
[40] = test system: DLD-1 colon
[41] = test system: SF-295 CNS
[42] = test system: K-562 leukemia
[43] = test system: CAKI-1 renal
[44] = test system: HCC-2998 colon
[45] = test system: ACHN renal
[46] = test system: HL-60(TB) leukemia
[47] = test system: SK-MEL-5 melanoma
[48] = test system: SK-OV-3 ovarian
[49] = test system: SN12K1 renal
[50] = test system: NCI/ADR-RES ovarian
[51] = test system: XF 498 CNS
[52] = test system: MCF7 breast
[53] = test system: IGROV1 ovarian
[54] = test system: MALME-3M melanoma
[55] = test system: SNB-75 CNS
[56] = test system: MDA-MB-435
[57] = test system: TK-10 renal
[58] = test system: HOP-18 NSCLC
[59] = test system: SK-MEL-28 melanoma
[60] = test system: HCT-116 colon
[61] = test system: DMS 114 small cell lung
[62] = test system: SF-268 CNS
[63] = test system: BT-549 breast
[64] = test system: OVCAR-5 ovarian
[65] = test system: NCI-H23 lung
[66] = test system: MDA-MB-231 breast
[67] = test system: LOX IMVI melanoma
[68] = test system: RPMI-8226 leukemia
[69] = test system: CCRF-CEM leukemia
[70] = test system: MOLT-4 leukemia
[71] = test system: RXF-631 renal
[72] = test system: LXFL 529 NSCLC

CCCCCCCCCCCCCCCCCCOCC(COCCOCC[N+]1(CCCCCC(=O)[O-])CCCC1)Oc1ncccn1 (centres undefined)
TGI [1]: 16.7 µM
TGI [2]: 7.68 µM
TGI [3]: 10.4 µM
TGI [4]: 27.2 µM
TGI [5]: 19.2 µM
TGI [6]: 22.7 µM
TGI [7]: 16.5 µM
TGI [8]: 3.77 µM
TGI [9]: 22.2 µM
TGI [10]: 20 µM
TGI [11]: 13.7 µM
TGI [12]: 1.33 µM
TGI [13]: 4.52 µM
TGI [14]: 15 µM
TGI [15]: 4.22 µM
TGI [16]: 26.7 µM
TGI [17]: 37.1 µM
TGI [18]: 9.55 µM
TGI [19]: 23.6 µM
TGI [20]: 28.8 µM
TGI [21]: 14.5 µM
TGI [22]: 17.7 µM
TGI [23]: 23.2 µM
TGI [24]: 20.4 µM
TGI [25]: 14.2 µM
TGI [26]: 8.5 µM
TGI [27]: 5.93 µM
TGI [28]: 22.7 µM
TGI [29]: 31.3 µM
TGI [30]: 2.26 µM
TGI [31]: 15.9 µM
TGI [32]: 20 µM
TGI [33]: 21.2 µM
TGI [34]: 1.02 µM
TGI [35]: 15.9 µM
TGI [36]: 5.24 µM
TGI [37]: 25.5 µM
TGI [38]: 16.8 µM
TGI [39]: 15.8 µM
TGI [40]: 14 µM
TGI [41]: 27.2 µM
TGI [42]: 14.2 µM
TGI [43]: 22.7 µM
TGI [44]: 17.4 µM
TGI [45]: 23.7 µM
TGI [46]: 2.6 µM
TGI [47]: 15.2 µM
TGI [48]: 6.62 µM
TGI [49]: 17.7 µM
TGI [50]: 24.1 µM
TGI [51]: 9.46 µM
TGI [52]: 16.1 µM
TGI [53]: 3.83 µM
TGI [54]: 32.8 µM
TGI [55]: 12.8 µM
TGI [56]: 25 µM
TGI [57]: 20.3 µM
TGI [58]: 13.7 µM
TGI [59]: 22.2 µM
TGI [60]: 15.8 µM
TGI [61]: 7.1 µM
TGI [62]: 16.5 µM
TGI [63]: 21.4 µM
TGI [64]: 13.9 µM
TGI [65]: 18.1 µM
TGI [66]: 21.7 µM
TGI [67]: 13 µM
TGI [68]: 8.96 µM
TGI [69]: 13.9 µM
TGI [70]: 20.7 µM

C=CCNC(=O)N(CCC)CCCC(NC(C)=O)C(=O)NCc1ccccc1 (centres undefined)
TGI [1]: > 100 µM
TGI [2]: > 100 µM
TGI [3]: > 100 µM
TGI [5]: > 100 µM
TGI [71]: > 100 µM
TGI [6]: > 100 µM
TGI [7]: > 100 µM
TGI [8]: > 100 µM
TGI [9]: > 100 µM
TGI [10]: > 100 µM
TGI [11]: > 100 µM
TGI [12]: > 100 µM
TGI [15]: > 100 µM
TGI [16]: > 100 µM
TGI [72]: > 100 µM
TGI [18]: > 100 µM
TGI [19]: > 100 µM
TGI [21]: > 100 µM
TGI [22]: > 100 µM
TGI [24]: > 100 µM
TGI [25]: > 100 µM
TGI [26]: > 100 µM
TGI [27]: > 100 µM
TGI [28]: > 100 µM
TGI [29]: > 100 µM
TGI [30]: > 100 µM
TGI [31]: > 100 µM
TGI [32]: > 100 µM
TGI [36]: > 100 µM
TGI [37]: > 100 µM
TGI [38]: > 100 µM
TGI [39]: > 100 µM
TGI [41]: > 100 µM
TGI [42]: > 100 µM
TGI [43]: > 100 µM
TGI [45]: > 100 µM
TGI [46]: > 100 µM
TGI [47]: > 100 µM
TGI [48]: > 100 µM
TGI [51]: > 100 µM
TGI [53]: > 100 µM
TGI [54]: > 100 µM
TGI [55]: > 100 µM
TGI [57]: > 100 µM
TGI [58]: > 100 µM
TGI [59]: > 100 µM
TGI [61]: > 100 µM
TGI [62]: > 100 µM
TGI [64]: > 100 µM
TGI [65]: > 100 µM
TGI [67]: > 100 µM
TGI [68]: > 100 µM
TGI [69]: > 100 µM
TGI [70]: > 100 µM
